Where a name gives a salt, the structure may show the parent alone. Active and inactive are the calls of the source.

Targets include Cytochrome P450 2C9 (Homo sapiens, UniProt P11712); Cytochrome P450 3A4 (Homo sapiens, UniProt P08684); Cytochrome P450 2D6 (Homo sapiens, UniProt P10635).
The nature of series [1]: inhibitors of HIV Env-driven cell fusion, dose response, cherry-pick (AID 652057). It is filed as functional, cell-based.
Series [2] is described as follows: ZM109 Env clade C HIV-1 fusion inhibitors, dose response, HeLa effector, CEM target cells, luciferase, cherry-pick (AID 652058). It is filed as functional, cell-based.
The nature of series [3]: off-target signal loss in HeLa-CEM21 co-culture – HeLa F-luc CTL cells, cherry-picked, counter-screen for HIV-1 Env fusion inhibitor project, dose response (AID 652040).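 Note: potency for signal decrease marking cytotoxic or nonspecific inhibition.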 It is filed as functional, cell-based.
Series [4] in a line: inhibitors of clade B AD8 Env fusion, dose response, cell-based, cherry-pick (AID 652062).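 Note: luciferase signal from cell-cell fusion driven by HIV-1 clade B AD8 Env; potency is for inhibitors of fusion seen as a drop in luminescence.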 It is filed as functional.
Series [5] has as its target T1, Ubiquitin-conjugating enzyme E2 N (Homo sapiens, UniProt P61088).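 Note: Dose-response confirmation in a TR-FRET assay detecting UBC13-driven polyubiquitin chain formation, inhibition measured.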
T1 sequence (P61088 whole entry): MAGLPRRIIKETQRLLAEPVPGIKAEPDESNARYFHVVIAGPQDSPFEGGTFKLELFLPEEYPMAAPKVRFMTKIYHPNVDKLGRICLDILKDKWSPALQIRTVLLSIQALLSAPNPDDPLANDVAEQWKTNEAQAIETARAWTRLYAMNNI
The series is classed as functional.

The target in another series is Prothrombin (Homo sapiens, UniProt P00734). In words: Thrombin 1536 HTS Dose Response Confirmation. [Related pubchem assays: 1046 (Thrombin 1536 HTS; hits were confirmed in this assay)]. The series is classed as functional.
Series [6] has as its target Peroxisome proliferator-activated receptor gamma/Nuclear receptor coactivator 2 (Homo sapiens, UniProt P37231). The series is classed as functional.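 Note: agonist potency for raising coactivator recruitment to the receptor.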
Series [7] concerns the target Peroxisome proliferator-activated receptor gamma/Nuclear receptor coactivator 1 (Homo sapiens, UniProt P37231). The series is classed as functional.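 Note: agonist potency as compounds enhance coactivator SRC-1 recruitment to PPARgamma.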
The target in series [8] is Peroxisome proliferator-activated receptor gamma/Nuclear receptor coactivator 3 (Homo sapiens, UniProt P37231). The series is classed as functional.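 Note: agonist potency for raising coactivator recruitment to the receptor.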
Series [9] is described as follows: microbe, parasite or virus in culture. It is filed as functional. The settings on record: Mycobacterium tuberculosis.
Series [10] is described as follows: Luminescence Cell-Based Dose Retest to Confirm Inhibitors of Cancer Stem Cells. [Related pubchem assays (depositor defined):AID2717, AID2721]. The series is classed as functional. Particulars: Homo sapiens.
The target in series [11] is Heat shock protein HSP 90-alpha (Homo sapiens, UniProt P07900). The series is classed as functional, organism-based.
A further series deals with T2, Cytochrome P450 1A2 (Homo sapiens, UniProt P05177).
T2 sequence (P05177 whole entry): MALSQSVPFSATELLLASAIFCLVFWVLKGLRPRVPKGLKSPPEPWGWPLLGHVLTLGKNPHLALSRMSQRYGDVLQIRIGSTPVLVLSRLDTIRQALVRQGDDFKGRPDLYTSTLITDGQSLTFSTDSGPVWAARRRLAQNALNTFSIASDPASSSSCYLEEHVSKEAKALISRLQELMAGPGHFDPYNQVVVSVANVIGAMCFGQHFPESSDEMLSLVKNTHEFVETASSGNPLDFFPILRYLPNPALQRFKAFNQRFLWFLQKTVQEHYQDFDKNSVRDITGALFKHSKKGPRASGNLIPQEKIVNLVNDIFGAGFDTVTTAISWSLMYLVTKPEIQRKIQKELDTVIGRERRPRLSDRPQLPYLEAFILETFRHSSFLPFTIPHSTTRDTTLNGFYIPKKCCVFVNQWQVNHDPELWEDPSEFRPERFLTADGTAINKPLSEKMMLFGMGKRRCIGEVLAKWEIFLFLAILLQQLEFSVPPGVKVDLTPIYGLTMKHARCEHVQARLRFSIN

Series [12] concerns the target T3, RNA-binding protein pos-1 (Caenorhabditis elegans, UniProt G5EF15).
T3 sequence (G5EF15 whole entry): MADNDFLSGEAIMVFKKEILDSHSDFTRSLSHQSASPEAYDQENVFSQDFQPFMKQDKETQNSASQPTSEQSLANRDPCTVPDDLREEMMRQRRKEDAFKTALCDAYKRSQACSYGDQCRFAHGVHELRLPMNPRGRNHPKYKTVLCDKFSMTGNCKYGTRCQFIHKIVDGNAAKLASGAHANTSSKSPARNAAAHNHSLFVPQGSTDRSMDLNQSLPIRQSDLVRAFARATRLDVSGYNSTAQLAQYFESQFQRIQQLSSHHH
In words: inhibitors of POS-1/mex-3 RNA binding, dose response, biochemical, fluorescence polarization (AID 1964).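 Note: purified POS-1 fused to maltose binding protein made in E. coli; potency of compounds blocking POS-1 binding to fluorescent RNA.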

In series [13] the target is T4, Zinc finger protein mex-5 (Caenorhabditis elegans, UniProt Q9XUB2).
T4 sequence (Q9XUB2 whole entry): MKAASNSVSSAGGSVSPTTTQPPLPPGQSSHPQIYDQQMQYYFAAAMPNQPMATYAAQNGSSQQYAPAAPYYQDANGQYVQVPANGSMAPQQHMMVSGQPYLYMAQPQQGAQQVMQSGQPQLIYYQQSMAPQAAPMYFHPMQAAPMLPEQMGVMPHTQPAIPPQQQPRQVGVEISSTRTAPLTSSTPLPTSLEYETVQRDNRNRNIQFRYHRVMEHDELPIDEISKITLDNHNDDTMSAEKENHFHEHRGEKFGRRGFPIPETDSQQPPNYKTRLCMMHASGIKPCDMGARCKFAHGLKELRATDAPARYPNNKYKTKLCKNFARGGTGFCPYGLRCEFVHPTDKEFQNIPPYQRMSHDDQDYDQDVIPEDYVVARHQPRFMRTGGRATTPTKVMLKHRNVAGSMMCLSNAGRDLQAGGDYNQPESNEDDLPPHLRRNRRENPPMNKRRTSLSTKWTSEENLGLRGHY
The series is described as follows: MEX-5/TCR-2 RNA interaction inhibitors, dose response, biochemical, C. elegans, fluorescence polarization (AID 1960). On the technique in general: In fluorescence polarisation assays a small probe gives low polarisation when free and higher when bound to something large.

Series [14] concerns the target T5, Polyadenylate-binding protein 1 (Homo sapiens, UniProt P11940). The series is described as follows: PABP1 MLLE–PAM2 interaction inhibitors, dose response, miRNA deadenylation inhibitor project, biochemical, fluorescence polarization, Cy5-PAM2 peptide, secondary (AID 602260). The series is classed as functional. The settings on record: read-out: IC50_Mean.
The target in series [15] is T5, Polyadenylate-binding protein 1. The series is described as follows: PABP1 MLLE–PAM2 binding inhibitor potency, dose response, biochemical, fluorescence polarization, FITC-PAM2 peptide (AID 602259). The series is classed as functional. Particulars: read-out: IC50_Mean.
Series [16] can be described thus: LGR2 antagonists, dose response, cell-based, HEK293, CRE-luciferase reporter, cherry pick, set 2 (AID 743343).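 Note: transfected cells were stimulated with diluted bursicon conditioned medium after compound addition.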 It is filed as functional. In general terms: Reporter assays use an easily measured gene product as a stand-in for the process of interest.
Series [17] in a line: MC4R antagonists, dose response, counter-screen for LGR2 antagonist project, cell-based, plate reader, cherry pick (AID 743444).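 Note: transfected HEK 293 cells stimulated with alpha-MSH peptide; potency of inhibitors of the alpha-MSH evoked signal.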 It is filed as functional. In general terms: The purpose of a counterscreen is to sort out artefacts and off-target activity.
In a further series the target is T6, Streptokinase A (Streptococcus pyogenes serotype M1, UniProt P10520).
T6 sequence (P10520 whole entry): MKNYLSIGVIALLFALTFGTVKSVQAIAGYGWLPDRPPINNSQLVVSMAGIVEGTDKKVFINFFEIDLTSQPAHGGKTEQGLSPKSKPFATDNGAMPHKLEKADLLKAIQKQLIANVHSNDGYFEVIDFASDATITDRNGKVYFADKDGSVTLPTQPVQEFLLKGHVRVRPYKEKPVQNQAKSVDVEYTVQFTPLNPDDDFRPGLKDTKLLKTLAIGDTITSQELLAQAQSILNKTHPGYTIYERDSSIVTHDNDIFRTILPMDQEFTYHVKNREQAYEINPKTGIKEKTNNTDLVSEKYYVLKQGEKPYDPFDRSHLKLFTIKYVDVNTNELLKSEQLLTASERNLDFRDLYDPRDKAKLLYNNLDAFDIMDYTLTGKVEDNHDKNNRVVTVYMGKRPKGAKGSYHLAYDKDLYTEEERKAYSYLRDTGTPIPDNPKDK
The series is described as follows: S. pyogenes streptokinase expression inhibitors, potency, dose response, plasminogen activation absorbance, OD405 (AID 1914).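 Note: secreted streptokinase activity via plasminogen activation per viability signal from cell pellet.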 The series is classed as functional, Streptococcus pyogenes M1 GAS.

Another series deals with Streptococcus. The series is described as follows: Group A Streptococcus viability loss, dose response, counter-screen for streptokinase expression inhibitor project, luminescence, BacTiterGlo (AID 1915).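 Note: potency for reduction of bacterial viability or growth.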 It is filed as functional, organism-based.

Chain of Cytochrome P450 3A4 (P08684 whole entry, the tested form may be a part): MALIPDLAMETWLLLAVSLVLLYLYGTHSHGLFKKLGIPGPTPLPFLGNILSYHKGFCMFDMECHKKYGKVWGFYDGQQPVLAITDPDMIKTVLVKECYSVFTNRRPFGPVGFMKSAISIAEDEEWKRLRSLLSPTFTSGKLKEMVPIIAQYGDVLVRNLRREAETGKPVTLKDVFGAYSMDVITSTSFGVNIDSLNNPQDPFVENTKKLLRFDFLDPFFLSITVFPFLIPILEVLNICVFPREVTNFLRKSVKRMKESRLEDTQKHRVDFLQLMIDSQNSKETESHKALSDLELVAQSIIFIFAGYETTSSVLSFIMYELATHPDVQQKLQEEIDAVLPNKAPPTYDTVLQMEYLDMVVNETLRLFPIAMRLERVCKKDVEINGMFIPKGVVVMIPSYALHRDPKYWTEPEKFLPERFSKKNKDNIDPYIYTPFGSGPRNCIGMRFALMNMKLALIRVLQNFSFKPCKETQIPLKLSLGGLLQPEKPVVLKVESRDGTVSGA
T5 sequence (P11940 whole entry): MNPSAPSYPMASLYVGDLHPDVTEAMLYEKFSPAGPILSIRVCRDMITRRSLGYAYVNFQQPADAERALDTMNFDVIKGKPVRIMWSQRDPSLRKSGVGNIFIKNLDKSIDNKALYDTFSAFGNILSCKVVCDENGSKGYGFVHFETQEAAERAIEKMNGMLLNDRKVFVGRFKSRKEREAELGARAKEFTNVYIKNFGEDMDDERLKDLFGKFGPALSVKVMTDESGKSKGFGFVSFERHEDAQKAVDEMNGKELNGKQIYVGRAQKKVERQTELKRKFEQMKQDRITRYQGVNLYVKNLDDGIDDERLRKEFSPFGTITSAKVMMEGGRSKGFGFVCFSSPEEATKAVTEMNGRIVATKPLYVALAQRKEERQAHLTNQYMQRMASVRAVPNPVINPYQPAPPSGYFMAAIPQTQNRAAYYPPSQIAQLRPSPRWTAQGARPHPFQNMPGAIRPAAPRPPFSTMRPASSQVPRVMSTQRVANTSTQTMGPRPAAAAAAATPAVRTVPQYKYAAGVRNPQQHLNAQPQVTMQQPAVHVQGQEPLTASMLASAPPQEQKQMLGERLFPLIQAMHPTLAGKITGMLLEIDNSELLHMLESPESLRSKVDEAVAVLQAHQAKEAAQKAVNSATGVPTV
Chain of Peroxisome proliferator-activated receptor gamma/Nuclear receptor coactivator 2 (P37231 whole entry): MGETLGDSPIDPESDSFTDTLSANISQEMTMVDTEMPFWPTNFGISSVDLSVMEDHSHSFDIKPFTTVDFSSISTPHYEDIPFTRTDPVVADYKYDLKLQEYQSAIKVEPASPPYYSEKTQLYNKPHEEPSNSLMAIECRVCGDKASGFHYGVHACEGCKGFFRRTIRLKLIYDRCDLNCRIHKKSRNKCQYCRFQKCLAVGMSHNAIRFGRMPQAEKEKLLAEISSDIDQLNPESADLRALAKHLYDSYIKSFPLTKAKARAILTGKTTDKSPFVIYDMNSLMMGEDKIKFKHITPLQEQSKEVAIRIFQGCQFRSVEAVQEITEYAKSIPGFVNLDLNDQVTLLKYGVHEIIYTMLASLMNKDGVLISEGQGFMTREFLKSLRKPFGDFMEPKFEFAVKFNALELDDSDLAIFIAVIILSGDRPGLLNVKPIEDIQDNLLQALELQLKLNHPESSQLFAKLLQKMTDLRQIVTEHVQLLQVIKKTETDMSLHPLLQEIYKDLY
Chain of Peroxisome proliferator-activated receptor gamma/Nuclear receptor coactivator 2 (Q15596 whole entry, further chain): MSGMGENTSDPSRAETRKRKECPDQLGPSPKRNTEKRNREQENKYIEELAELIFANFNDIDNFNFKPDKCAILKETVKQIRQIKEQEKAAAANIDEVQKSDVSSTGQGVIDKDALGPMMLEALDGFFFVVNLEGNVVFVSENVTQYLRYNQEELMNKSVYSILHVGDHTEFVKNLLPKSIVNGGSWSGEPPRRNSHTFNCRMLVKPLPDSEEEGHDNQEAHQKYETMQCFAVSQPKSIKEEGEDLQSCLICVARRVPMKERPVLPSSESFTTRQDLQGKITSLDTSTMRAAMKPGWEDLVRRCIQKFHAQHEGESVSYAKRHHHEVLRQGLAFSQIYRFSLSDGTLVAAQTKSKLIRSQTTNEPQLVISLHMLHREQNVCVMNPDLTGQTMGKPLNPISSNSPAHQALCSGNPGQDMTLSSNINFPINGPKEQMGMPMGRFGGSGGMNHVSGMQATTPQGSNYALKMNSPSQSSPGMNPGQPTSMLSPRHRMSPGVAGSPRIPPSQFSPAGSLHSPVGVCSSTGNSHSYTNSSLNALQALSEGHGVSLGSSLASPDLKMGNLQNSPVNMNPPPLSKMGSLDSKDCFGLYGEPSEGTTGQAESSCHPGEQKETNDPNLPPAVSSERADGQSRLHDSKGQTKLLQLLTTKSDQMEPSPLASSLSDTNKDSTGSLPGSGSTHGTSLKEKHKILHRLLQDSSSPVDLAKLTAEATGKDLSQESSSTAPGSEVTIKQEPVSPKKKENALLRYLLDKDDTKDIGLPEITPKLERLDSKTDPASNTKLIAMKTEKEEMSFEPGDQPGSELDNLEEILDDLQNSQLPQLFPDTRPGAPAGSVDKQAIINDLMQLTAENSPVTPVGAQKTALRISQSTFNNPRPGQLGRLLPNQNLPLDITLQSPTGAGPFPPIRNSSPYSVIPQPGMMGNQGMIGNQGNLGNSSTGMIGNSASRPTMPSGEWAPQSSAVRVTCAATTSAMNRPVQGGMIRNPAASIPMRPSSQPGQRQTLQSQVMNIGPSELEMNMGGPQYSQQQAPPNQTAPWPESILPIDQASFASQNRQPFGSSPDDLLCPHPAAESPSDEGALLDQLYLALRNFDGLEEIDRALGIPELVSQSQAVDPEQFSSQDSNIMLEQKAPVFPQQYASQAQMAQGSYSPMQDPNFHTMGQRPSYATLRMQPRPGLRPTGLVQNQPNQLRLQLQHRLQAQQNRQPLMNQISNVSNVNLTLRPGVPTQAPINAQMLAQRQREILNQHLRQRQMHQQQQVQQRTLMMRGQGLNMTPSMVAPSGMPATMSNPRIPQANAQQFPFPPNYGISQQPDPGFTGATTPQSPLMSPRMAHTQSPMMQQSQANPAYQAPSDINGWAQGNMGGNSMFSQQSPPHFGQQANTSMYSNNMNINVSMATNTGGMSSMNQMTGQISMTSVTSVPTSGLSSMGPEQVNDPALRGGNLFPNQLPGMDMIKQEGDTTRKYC
Chain of Peroxisome proliferator-activated receptor gamma/Nuclear receptor coactivator 3 (P37231 whole entry): as the sequence (P37231 whole entry) above
Chain of Peroxisome proliferator-activated receptor gamma/Nuclear receptor coactivator 3 (Q9Y6Q9 whole entry, further chain): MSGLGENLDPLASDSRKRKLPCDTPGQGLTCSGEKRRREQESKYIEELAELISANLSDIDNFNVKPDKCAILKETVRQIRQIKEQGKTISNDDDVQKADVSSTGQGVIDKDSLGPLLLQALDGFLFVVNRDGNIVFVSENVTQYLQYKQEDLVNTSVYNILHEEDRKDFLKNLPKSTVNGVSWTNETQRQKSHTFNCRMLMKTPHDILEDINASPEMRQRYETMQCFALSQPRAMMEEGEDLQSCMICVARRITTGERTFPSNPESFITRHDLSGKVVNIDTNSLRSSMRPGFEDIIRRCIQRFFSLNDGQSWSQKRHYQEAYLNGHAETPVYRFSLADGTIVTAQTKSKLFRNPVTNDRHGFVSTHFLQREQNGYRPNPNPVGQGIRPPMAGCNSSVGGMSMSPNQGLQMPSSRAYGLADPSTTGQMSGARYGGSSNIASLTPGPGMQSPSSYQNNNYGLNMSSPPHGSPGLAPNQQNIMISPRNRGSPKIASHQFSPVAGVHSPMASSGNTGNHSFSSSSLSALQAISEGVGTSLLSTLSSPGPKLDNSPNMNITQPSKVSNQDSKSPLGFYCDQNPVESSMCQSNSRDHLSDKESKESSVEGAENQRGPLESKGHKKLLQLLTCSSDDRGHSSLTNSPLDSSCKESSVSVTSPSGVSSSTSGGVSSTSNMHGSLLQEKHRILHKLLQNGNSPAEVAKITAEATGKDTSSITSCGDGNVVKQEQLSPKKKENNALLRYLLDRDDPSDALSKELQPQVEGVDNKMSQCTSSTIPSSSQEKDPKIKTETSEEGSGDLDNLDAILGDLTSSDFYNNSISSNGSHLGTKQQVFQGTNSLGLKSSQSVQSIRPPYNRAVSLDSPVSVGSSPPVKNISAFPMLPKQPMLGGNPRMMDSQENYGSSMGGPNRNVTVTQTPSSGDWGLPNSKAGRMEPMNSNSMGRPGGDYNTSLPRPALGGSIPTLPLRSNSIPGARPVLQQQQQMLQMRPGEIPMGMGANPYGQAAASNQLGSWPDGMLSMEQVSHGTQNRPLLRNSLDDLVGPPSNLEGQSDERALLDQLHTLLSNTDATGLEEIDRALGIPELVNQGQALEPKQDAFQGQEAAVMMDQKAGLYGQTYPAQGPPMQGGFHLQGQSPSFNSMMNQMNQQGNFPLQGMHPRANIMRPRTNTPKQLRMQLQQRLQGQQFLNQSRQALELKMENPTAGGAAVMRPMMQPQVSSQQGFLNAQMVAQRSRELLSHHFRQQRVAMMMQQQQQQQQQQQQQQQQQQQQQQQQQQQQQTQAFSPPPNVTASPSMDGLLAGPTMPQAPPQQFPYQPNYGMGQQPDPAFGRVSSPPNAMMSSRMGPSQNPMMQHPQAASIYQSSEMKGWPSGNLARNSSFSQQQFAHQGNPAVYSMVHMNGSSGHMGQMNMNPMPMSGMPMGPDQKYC

With `CC(=O)OCC(=O)[C@]12OC(C)(C)O[C@@H]1C[C@H]1[C@H]3CC=C4C[C@@H](O)CC[C@]4(C)[C@H]3CC[C@]12C`, the AC50 at Cytochrome P450 2C9 was 7.94 µM (inconclusive); at Cytochrome P450 3A4 it was “inconclusive”.

For `CC(NC(=O)c1cc(S(=O)(=O)N(C)C)ccc1N1CCCC1)C1CC2CCC1C2` (stereo not given), the AC50 was 2.74 µM (active) in series [1], 4.03 µM (active) in series [2], 4.89 µM (active) in series [3] and 7.68 µM (active) in series [4].

Consider `CC(C)Cn1cc(C(=O)NCCCN2CCC(C)CC2)c2c3ccccc3n(C)c2c1=O`, for which the IC50 in series [5] was > 20 µM (inactive).

As for `Cc1ccc(NCC(O)C(O)C(O)CO)c(N=Nc2ccccc2)c1C` (stereo not given), the IC50 on Prothrombin was > 50 µM (not active).

For `O=C(Nc1cnccn1)c1cccc(C(F)(F)F)c1`, the EC50 in [6], in [7] and in series [8] was > 79.4 µM (not active) in each case.

With `C[C@@]12CC[C@@H]3[C@H](CCC4=CC(=O)CC[C@]43C)[C@@H]1CC[C@@H]2C(=O)Cn1cnc2c(S)ncnc21`, on Cytochrome P450 3A4, the AC50 result is reported as “inconclusive”.

Consider `CCCCN(CCCC)CCC(O)c1cc2c(Cl)cc(Cl)cc2c2cc(C(F)(F)F)ccc12` (stereo not given) [HALOFANTRINE HYDROCHLORIDE], for which, in series [9], the CC50 is > 40 µM (active). The AC50 in series [10] is 6.51 µM (active); in [11], 7.27 µM (active); on Cytochrome P450 1A2 it was 20 µM (inconclusive). Moreover, the IC50 in series [5] was > 20 µM (inactive).

Regarding `COc1ccc(NC(=O)Nc2ccc(OCc3ccccc3)cc2)cn1`, the EC50 in series [12] was 29.2 µM (active); in series [13], 17.9 µM (active). Also, the IC50 is > 66 µM (inactive) in series [14] and 20 µM (active) in series [15].

With `CCN(CC(=O)Nc1cc(Cl)ccc1C)C(=O)c1ccc(=O)n(Cc2ccccc2)n1`, the AC50 was 4.27 µM (active) in series [1], 3.23 µM (active) in series [2], 5.05 µM (active) in [3] and 9.4 µM (active) in [4].

As for `Cc1ccc(-n2c(C)nc3c(cnn3-c3ccc(F)cc3)c2=O)cc1C`, the AC50 on Cytochrome P450 2D6 is 15.8 µM (inconclusive); on Cytochrome P450 2C9 it was 15.8 µM (inconclusive); at Cytochrome P450 3A4, “inconclusive”.

`CC(=O)CCc1ccc(OC(=O)c2cccnc2)cc1`: the EC50 in [6], in [7] and in series [8] was > 79.4 µM (not active) in each case.

For `COc1cccc(-c2cc(C(=O)N3CCCCCC3)no2)c1`, the AC50 is 10.3 µM (active) in series [16] and 16.7 µM (active) in series [17].

As to `CCOc1ccc(OCC)c(NC(=O)C2CCCN(S(=O)(=O)c3c[nH]cn3)C2)c1` (stereo not given), at Prothrombin, the IC50 was > 50 µM (not active).

For `COC(=O)c1nnc(NC(=O)c2ccc(Br)cc2)[nH]1`, the IC50 at Prothrombin is 0.0137 µM (active).

On to `CC1CCCN(c2nc3ccccc3nc2C(C#N)S(=O)(=O)c2cccs2)C1` (stereo not given), for which the EC50 in [12] is 7.02 µM (inconclusive); in [13], 11.2 µM (inconclusive). The IC50 in series [14] and in series [15] was > 66 µM (inactive) throughout.

As to `CCOC(=O)c1c(-c2ccc(C)cc2)csc1NC(=O)CCN1CCOCC1`, the results for the EC50 at Streptokinase A and in the series with Streptococcus were 65.4 µM (active) and > 150 µM (not active), respectively. The IC50 at Prothrombin is > 50 µM (not active).

For `CC(C)NC(=O)N1CCC2(CC1)CCN(C(=O)c1cccc(F)c1)CC2`, at Cytochrome P450 3A4, the AC50 result is reported as “inconclusive”.

In the case of `NCCCC[C@@H]1NC(=O)c2cc([N+](=O)[O-])cc(F)c2NCCCC[C@@H](C(N)=O)NC(=O)CNC1=O`, in series [5], the IC50 is > 20 µM (inactive).

Take `COc1ccc(C(=O)Nc2cc(C)c3c(=O)oc4ccccc4c3n2)cc1`: the EC50 is 82.8 µM (not active) in series [6], > 79.4 µM (not active) in series [7] and > 79.4 µM (not active) in series [8].

For `CN1CC(c2ccccc2)C2(COc3ccccc3C2=O)C12C(=O)Nc1ccccc12` (stereo not given), the AC50 in series [1] is 2.66 µM (active); in [2], 3.46 µM (active); in series [3] it was 4.14 µM (active); in series [4], 5.51 µM (active); at Cytochrome P450 2D6, 20 µM (inconclusive).

Take `Cc1cccc2cc(CN(Cc3ccc4c(c3)OCO4)Cc3nnnn3C3CCCC3)c(=O)[nH]c12`: the 50% effective concentration (EC50) in series [6], in series [7] and in series [8] was > 79.4 µM (not active) in each case.

By AC50 is commonly meant the midpoint of the concentration-response curve, whichever way the signal moves. The EC50 is the concentration needed to bring the measured effect to its halfway point.

For the origin of these results see ChEMBL document CHEMBL1201862, “PubChem BioAssay data set” (2004).
